How the values were obtained:
Format in all cases: in vivo, Sprague-Dawley rats
[1] = system: BiP/Grp78; test: Western blot of BiP/Grp78 in spinal cord after contusion SCI
Experimental: (§1) Adult females Sprague-Dawley rats aged 11 weeks (220-250 g) were anesthetized with pentobarbital (40 mg/kg i.p.). When unresponsive, the vertebral column was exposed and a laminectomy carried out at T8-T9 levels. Rostral T7 and caudal T10 vertebral bodies were clamped with Adson stabilizing forceps, and carefully adjusted to level the spinal cord in the horizontal plane. A contusion injury was performed using the Infinite Horizon impactor device (Precision Scientific Instruments, Lexington, KY). The stainless steel impounder tip was placed at 3-4 mm above the exposed spinal cord, and then a fast impact produced applying forces of 150 or 250 kilodynes (KDyn) to the exposed spinal cord. The wound was sutured with 5-0 silk thread in the muscular plane and the skin was closed with small clips and disinfected with povidone iodine solution. Sham-operated animals received the same surgical procedure but sustained no impact injury; the spinal cord was left exposed for 5 min. The animals were maintained in a warm environment until full recovery, and received preventive antibiotic (amoxicyline) and analgesic (buprenorphine) treatment. […]
Rats were re-anesthetised and decapitated at 3 dpo for sample preparation. […] After clearance, protein concentration was measured by the BCA method assay (BCA Protein Assay kit, Pierce). […]

[2] = system: ATF4; test: Western blot of ATF4 in spinal cord after contusion SCI; details: VPA-treated injured spinal cords compared with vehicle-treated ones
Experimental: as §1, with “min.” for “min. The animals were maintained in a warm environment until full recovery, and received preventive antibiotic (amoxicyline) and analgesic (buprenorphine) treatment.”
(§2) Rats were re-anesthetised and decapitated at 3 dpo for sample preparation. […] After clearance, protein concentration was measured by the BCA method assay (BCA Protein Assay kit, Pierce). […] The membrane was visualized by enhanced chemiluminiscence (ECL) method and the images analyzed with Gene Snap and Gene Tools software, and Gene Genome apparatus (Syngene). […]

[3] = system: P-eIF2α; test: Western blot of phospho-eIF2α in spinal cord after contusion SCI; details: whether higher in VPA-treated injured spinal cords than in vehicle-treated ones
Experimental: as §1, with “min.” for “min. The animals were maintained in a warm environment until full recovery, and received preventive antibiotic (amoxicyline) and analgesic (buprenorphine) treatment.”
as §2

[4] = system: hind limb locomotion; test: Open-field walking test (BBB scale) after spinal cord contusion; details: SCI 250 Kdyn
Experimental: as §1, with “treatment. All animals were kept under standard conditions of light and temperature and fed with food and water ad libitum.” for “treatment.”

[5] = system: axons; test: Immunohistochemistry of axons (RT97 neurofilament, 5-HT) after SCI
Experimental: as §1, with “treatment. All animals were kept under standard conditions of light and temperature and fed with food and water ad libitum.” for “treatment.”

## CCCC(CCC)C(=O)O [VPA, 2-propylpentanoic acid]
[1]; VPA 300 mg/kg every 12 h i.p., contusion 150 and 250 KDyn, three days post-injury
  BiP levels: not able to alter
[1]; VPA 300mg/kg once per day i.p., vs saline, 3 days post-injury
  BiP levels: did not produce changes
[2]
  levels of ATF4: significantly higher levels
[3]
  levels of P-eIF2α: not
[4]; 7 days post-surgery, average of both groups
  BBB score: 3-4
[4]; 35 days, VPA 300 mg/kg every 12 h one week then every 24 h two weeks, saline 8
  BBB score: 12
[5]; anti-neurofilament antibody RT97, rostral and caudal to the lesion
  density of axonal profiles: increased density
[5]; rostral and caudal to the lesion
  number of serotonin (5-HT)-positive axons: increased

Reference: patent EP2181708A1, “Use of Valproate for reducing CHOP levels, particularly in a mammal having SCI” (Universitat Autonoma de Barcelona, priority 2008, dated 2010)
